Experiments:
[1] = biological target: 5-hydroxytryptamine receptor 2B (Homo sapiens, UniProt P41595); format: functional, cell-based
[2] = biological target: Neuronal acetylcholine receptor subunit alpha-4 (Homo sapiens, UniProt P43681)
[3] = biological target: T1, Prostaglandin G/H synthase 1 (Rattus norvegicus, UniProt Q63921); format: functional
T1 sequence (Q63921 whole entry): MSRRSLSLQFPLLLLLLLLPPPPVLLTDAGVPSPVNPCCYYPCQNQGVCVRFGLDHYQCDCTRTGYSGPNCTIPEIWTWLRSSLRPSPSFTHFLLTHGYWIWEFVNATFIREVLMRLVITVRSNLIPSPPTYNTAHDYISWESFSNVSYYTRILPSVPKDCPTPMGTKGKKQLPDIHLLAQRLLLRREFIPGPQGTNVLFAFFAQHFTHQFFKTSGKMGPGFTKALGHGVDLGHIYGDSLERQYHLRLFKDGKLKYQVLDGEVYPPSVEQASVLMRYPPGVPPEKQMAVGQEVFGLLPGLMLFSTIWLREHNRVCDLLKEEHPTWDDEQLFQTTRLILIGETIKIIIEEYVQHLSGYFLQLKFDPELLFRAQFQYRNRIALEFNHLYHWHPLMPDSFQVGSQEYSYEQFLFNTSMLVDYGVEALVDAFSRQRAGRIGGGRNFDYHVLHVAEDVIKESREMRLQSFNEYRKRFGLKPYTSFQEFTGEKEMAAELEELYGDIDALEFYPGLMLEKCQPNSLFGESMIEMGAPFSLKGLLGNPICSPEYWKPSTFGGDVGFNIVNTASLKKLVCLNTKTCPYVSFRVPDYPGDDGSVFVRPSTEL

D(3) dopamine receptor = D(3) dopamine receptor (Homo sapiens, UniProt P35462)
D(3) dopamine receptor, sequence (P35462 whole entry): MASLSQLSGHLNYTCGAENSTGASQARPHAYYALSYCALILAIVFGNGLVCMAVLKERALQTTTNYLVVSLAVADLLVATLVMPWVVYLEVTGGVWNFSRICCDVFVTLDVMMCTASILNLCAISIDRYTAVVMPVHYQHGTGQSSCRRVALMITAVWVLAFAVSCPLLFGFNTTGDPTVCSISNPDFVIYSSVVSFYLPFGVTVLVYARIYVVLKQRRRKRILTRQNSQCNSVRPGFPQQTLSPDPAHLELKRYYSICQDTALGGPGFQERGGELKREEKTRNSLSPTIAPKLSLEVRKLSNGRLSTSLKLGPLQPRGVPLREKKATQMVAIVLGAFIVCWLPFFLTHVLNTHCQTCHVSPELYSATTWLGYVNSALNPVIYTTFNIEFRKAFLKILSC

Adenosine receptor A3 = biological target: T2, Adenosine receptor A3 (Homo sapiens, UniProt P0DMS8)
T2 sequence (P0DMS8 whole entry): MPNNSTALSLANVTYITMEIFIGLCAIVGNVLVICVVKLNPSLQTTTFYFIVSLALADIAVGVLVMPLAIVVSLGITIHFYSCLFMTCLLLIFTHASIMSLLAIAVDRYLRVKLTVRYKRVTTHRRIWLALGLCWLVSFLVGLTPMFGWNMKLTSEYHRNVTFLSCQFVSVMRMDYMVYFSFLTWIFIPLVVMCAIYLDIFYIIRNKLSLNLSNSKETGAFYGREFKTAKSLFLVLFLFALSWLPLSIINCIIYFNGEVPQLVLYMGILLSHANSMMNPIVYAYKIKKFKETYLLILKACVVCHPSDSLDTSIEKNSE

Motilin receptor = Motilin receptor (Homo sapiens, UniProt O43193)
Motilin receptor, sequence (O43193 whole entry): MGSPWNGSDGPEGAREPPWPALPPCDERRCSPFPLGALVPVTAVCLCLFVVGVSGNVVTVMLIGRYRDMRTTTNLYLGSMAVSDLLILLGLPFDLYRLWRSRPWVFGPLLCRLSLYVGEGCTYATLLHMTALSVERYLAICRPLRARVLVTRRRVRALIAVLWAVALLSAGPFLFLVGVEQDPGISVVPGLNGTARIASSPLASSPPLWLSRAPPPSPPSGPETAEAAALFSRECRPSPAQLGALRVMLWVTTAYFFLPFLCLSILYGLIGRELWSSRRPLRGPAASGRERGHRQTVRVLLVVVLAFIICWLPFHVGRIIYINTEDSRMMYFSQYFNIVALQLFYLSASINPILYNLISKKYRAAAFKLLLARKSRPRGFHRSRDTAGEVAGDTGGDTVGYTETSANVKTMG

[4] = biological target: T3, Alpha-2A adrenergic receptor (Homo sapiens, UniProt P08913); format: functional, cell-based
T3 sequence (P08913 whole entry): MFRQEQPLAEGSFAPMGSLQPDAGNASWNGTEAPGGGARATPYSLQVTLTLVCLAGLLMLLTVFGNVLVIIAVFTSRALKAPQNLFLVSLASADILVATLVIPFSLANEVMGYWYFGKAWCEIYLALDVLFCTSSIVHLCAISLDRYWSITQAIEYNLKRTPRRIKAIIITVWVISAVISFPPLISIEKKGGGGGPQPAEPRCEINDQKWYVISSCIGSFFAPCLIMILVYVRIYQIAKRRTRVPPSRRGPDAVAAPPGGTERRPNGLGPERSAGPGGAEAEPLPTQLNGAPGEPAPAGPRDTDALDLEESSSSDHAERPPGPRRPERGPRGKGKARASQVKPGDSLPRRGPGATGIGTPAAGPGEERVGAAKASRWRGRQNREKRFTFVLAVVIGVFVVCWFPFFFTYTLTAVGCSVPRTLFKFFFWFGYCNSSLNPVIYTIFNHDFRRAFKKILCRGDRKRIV

[5] = biological target: cGMP-inhibited 3',5'-cyclic phosphodiesterase 3A (Homo sapiens, UniProt Q14432); format: functional
cGMP-inhibited 3',5'-cyclic phosphodiesterase 3A, sequence (Q14432 whole entry): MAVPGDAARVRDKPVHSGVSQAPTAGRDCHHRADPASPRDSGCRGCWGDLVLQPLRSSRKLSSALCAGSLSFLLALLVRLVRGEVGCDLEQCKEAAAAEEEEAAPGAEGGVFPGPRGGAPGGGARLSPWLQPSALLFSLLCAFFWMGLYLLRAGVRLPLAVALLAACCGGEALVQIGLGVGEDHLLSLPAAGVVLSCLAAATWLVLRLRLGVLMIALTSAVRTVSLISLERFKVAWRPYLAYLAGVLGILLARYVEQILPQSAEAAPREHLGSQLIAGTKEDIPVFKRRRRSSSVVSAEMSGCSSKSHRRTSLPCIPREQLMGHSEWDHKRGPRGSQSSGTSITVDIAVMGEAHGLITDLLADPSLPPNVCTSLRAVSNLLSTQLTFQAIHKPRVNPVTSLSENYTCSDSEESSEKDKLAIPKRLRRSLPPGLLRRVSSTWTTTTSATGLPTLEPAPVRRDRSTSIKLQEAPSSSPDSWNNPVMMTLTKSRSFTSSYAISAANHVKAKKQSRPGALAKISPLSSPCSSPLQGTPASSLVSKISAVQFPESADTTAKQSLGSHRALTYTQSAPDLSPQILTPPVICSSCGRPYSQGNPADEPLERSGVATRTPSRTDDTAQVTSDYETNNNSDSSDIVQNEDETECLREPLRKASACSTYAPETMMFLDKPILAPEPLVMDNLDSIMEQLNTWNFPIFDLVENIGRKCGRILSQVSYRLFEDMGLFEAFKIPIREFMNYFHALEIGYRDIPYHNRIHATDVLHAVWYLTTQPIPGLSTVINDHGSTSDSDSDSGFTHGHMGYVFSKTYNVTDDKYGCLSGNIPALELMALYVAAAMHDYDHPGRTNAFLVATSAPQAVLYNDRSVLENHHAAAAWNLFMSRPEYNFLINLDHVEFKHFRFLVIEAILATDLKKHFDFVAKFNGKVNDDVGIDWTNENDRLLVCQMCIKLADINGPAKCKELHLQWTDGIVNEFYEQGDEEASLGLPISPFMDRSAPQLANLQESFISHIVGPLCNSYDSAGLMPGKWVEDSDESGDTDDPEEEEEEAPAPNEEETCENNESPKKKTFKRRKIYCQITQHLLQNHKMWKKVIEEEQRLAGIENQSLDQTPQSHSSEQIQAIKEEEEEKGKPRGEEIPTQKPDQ

[6] = biological target: T4, 5-hydroxytryptamine receptor 3A (Homo sapiens, UniProt P46098); format: functional
T4 sequence (P46098 whole entry): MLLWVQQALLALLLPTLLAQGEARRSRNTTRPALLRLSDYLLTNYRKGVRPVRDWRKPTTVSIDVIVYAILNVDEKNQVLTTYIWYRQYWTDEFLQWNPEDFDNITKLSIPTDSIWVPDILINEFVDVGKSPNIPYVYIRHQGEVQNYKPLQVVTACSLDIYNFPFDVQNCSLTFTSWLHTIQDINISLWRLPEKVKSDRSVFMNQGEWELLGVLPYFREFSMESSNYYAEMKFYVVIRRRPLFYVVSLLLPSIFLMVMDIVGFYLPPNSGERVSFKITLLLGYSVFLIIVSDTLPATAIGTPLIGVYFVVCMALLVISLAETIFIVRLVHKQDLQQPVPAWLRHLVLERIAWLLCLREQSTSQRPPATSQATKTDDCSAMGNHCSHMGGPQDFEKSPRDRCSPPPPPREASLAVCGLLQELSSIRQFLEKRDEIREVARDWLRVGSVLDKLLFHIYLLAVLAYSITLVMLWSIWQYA

[7] = biological target: T5, Alpha-2C adrenergic receptor (Homo sapiens, UniProt P18825); format: functional
T5 sequence (P18825 whole entry): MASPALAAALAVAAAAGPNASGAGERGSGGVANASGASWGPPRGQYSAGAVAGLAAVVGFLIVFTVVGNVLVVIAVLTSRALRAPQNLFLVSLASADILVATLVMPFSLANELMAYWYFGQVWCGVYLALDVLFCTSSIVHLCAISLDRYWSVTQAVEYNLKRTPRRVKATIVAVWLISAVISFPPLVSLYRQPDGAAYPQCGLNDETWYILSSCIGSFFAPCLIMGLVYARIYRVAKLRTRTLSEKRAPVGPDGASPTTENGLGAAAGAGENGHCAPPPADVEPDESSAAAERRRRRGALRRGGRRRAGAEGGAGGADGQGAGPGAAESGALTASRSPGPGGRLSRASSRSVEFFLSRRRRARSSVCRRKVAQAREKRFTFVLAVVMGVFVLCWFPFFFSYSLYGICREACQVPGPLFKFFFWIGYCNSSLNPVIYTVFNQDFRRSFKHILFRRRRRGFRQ

[8] = biological target: Sodium-dependent dopamine transporter (Homo sapiens, UniProt Q01959)
Sodium-dependent dopamine transporter, sequence (Q01959 whole entry): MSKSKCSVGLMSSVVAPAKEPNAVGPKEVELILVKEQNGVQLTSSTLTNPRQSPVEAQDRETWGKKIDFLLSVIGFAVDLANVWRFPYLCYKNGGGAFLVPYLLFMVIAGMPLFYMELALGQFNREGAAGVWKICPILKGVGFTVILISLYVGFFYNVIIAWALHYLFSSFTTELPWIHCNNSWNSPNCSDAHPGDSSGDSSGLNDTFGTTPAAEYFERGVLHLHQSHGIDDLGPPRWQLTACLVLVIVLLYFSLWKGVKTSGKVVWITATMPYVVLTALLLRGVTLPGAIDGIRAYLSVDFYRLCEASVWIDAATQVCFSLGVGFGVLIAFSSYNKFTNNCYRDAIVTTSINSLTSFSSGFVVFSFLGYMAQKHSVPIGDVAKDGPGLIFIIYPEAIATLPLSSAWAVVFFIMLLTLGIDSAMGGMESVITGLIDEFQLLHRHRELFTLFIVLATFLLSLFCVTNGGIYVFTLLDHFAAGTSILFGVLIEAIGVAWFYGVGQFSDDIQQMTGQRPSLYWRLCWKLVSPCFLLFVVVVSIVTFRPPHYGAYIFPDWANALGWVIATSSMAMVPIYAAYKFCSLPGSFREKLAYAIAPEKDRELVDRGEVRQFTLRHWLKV
Also: assay procedure not described here.

Neuronal acetylcholine receptor subunit alpha-4, sequence (P43681 whole entry): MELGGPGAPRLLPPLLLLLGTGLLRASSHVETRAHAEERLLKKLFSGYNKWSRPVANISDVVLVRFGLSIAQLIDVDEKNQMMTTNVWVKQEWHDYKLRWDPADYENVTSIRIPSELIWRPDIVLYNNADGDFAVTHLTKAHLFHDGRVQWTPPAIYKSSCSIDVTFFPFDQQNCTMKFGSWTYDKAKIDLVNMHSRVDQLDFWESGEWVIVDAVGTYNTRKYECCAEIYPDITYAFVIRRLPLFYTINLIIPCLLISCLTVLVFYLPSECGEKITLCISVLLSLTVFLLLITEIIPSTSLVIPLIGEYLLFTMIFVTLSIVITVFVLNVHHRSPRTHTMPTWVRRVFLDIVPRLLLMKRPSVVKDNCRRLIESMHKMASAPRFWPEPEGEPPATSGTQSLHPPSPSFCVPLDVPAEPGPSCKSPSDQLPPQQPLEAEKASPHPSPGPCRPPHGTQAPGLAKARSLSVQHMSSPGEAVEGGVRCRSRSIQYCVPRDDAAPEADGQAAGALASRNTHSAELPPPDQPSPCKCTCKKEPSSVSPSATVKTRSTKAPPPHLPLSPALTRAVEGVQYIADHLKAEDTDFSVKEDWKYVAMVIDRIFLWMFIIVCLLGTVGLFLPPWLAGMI
5-hydroxytryptamine receptor 2B, sequence (P41595 whole entry): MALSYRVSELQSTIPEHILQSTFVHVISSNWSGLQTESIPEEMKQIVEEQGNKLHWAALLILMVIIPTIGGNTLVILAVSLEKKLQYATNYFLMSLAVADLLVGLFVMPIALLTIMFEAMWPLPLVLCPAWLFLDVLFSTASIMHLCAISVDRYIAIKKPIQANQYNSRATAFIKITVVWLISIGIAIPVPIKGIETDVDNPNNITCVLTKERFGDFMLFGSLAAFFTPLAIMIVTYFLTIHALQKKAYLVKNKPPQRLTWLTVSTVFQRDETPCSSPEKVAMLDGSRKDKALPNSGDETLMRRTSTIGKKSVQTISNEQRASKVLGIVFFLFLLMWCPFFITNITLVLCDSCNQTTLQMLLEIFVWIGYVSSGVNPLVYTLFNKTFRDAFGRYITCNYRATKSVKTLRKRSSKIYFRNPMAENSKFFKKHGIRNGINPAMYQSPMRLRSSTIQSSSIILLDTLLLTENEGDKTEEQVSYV

SMILES	AC50 [1]	AC50 [2]	AC50 [3]	AC50 (D(3) dopamine receptor)	AC50 (Adenosine receptor A3)	AC50 (Motilin receptor)	AC50 [4]	AC50 [5]	AC50 [6]	AC50 [7]	AC50 [8]
CCC[C@@H]1C[C@@H](C(=O)N[C@@H]([C@H]2O[C@H](SC)[C@H](O)[C@@H](O)[C@H]2O)[C@H](C)Cl)N(C)C1 [CLINDAMYCIN]	> 10 µM	> 10 µM	> 30 µM	> 10 µM	> 30 µM	> 10 µM	> 10 µM	> 30 µM	> 30 µM	> 10 µM	> 10 µM
CC(C(=O)O)c1ccc(N2CC=CC2)c(Cl)c1 (stereo not given) [PIRPROFEN]	> 10 µM	> 10 µM	> 30 µM	> 10 µM	> 30 µM	> 10 µM	> 10 µM	> 30 µM	> 30 µM	> 10 µM	> 10 µM
COC(=O)C1=C(C)NC(C)=C(C(=O)OCC(C)C)C1c1ccccc1[N+](=O)[O-] (stereo not given) [NISOLDIPINE]	17 µM	> 10 µM	> 10 µM	10 µM	0.614 µM	> 10 µM	> 10 µM	6.2 µM	> 30 µM	> 10 µM	> 10 µM
CC(C)Cc1ccc(CC(=O)O)cc1 [IBUFENAC]	> 30 µM	> 30 µM	> 30 µM	> 30 µM	> 30 µM	> 30 µM	> 30 µM	> 30 µM	> 30 µM	> 30 µM	> 30 µM
C[C@H]1O[C@H](O[C@H]2[C@H](O)[C@@H](O)[C@@H](O[C@H]3[C@H](O)[C@@H](O)C(O)O[C@@H]3CO)O[C@@H]2CO)[C@H](O)[C@@H](O)[C@@H]1N[C@H]1C=C(CO)[C@@H](O)[C@H](O)[C@H]1O (stereo not given in full) [ACARBOSE]	> 30 µM	> 30 µM	> 30 µM	> 10 µM	> 30 µM	> 30 µM	> 30 µM	> 30 µM	> 10 µM	> 10 µM	> 30 µM
NC[C@H]1O[C@H](O[C@H]2[C@H](O)[C@@H](O[C@H]3O[C@H](CO)[C@@H](O)[C@H](N)[C@H]3O)[C@H](N)C[C@@H]2N)[C@H](O)[C@@H](O)[C@@H]1O [KANAMYCIN]	> 10 µM	> 10 µM	> 10 µM	> 30 µM	> 10 µM	> 10 µM	> 10 µM	> 30 µM	> 30 µM	> 30 µM	> 10 µM
C[C@H]1C[C@@H]2[C@H]([C@@H](O)C[C@@]3(C)[C@H]2CC[C@]3(O)C(=O)CO)[C@@]2(C)C=CC(=O)C=C12 [METHYLPREDNISOLONE]	> 10 µM	> 10 µM	> 10 µM	> 30 µM	> 10 µM	> 10 µM	> 10 µM	> 30 µM	> 30 µM	> 30 µM	> 10 µM
COC(=O)N[C@H](C(=O)N[C@@H](Cc1ccccc1)[C@@H](O)CN(Cc1ccc(-c2ccccn2)cc1)NC(=O)[C@@H](NC(=O)OC)C(C)(C)C)C(C)(C)C [ATAZANAVIR]	> 10 µM	> 30 µM	> 10 µM	> 30 µM	> 30 µM	6.4 µM	> 10 µM	> 30 µM	> 30 µM	> 10 µM	> 30 µM
Oc1ncnc2[nH]ncc12 [ALLOPURINOL]	> 10 µM	> 10 µM	> 30 µM	> 10 µM	> 30 µM	> 10 µM	> 10 µM	> 30 µM	> 30 µM	> 10 µM	> 10 µM
NC(=O)c1cnccn1 [PYRAZINAMIDE]	> 30 µM	> 30 µM	> 30 µM	> 30 µM	3.86 µM	> 30 µM	> 30 µM	> 30 µM	> 30 µM	> 30 µM	> 30 µM
